From PubChem BioAssay AID248 (DTP/NCI, 2004)
Where “and” joins values, the source holds several entries; their conditions need not be identical. Equal entries are not always repeated. Inconclusive results and toxic doses are left out.

System: L1210 leukemia ip in BDF1 mice, survival T/C
Test: NCI In Vivo Anticancer Drug Screen. Data for tumor model L1210 Leukemia (intraperitoneal) in B6D2F1 (BDF1) mice
Details: endpoint: mean survival time, higher = longer survival
Method in brief: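 Mice bearing the transplanted tumor received compound or vehicle. Survival of the treated group was divided by that of the vehicle-treated control group to give the ratio.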

[1] = dose: 100.0 mg/kg/injection, schedule: Q04DX003 (ip), vehicle: Klucel (hydroxypropylcellulose) (HPC)
[2] = dose: 200.0 mg/kg/injection, schedule: Q04DX003 (ip), vehicle: Klucel (hydroxypropylcellulose) (HPC)
[3] = dose: 400.0 mg/kg/injection, schedule: Q04DX003 (ip), vehicle: Klucel (hydroxypropylcellulose) (HPC)
[4] = dose: 100.0 mg/kg/injection, schedule: Q01DX009 (ip), vehicle: Klucel (hydroxypropylcellulose) (HPC)
[5] = dose: 200.0 mg/kg/injection, schedule: Q01DX009 (ip), vehicle: Klucel (hydroxypropylcellulose) (HPC)
[6] = dose: 400.0 mg/kg/injection, schedule: Q01DX009 (ip), vehicle: Klucel (hydroxypropylcellulose) (HPC)
[7] = dose: 50.0 mg/kg/injection, schedule: Q01DX009 (ip), vehicle: saline
[8] = dose: 100.0 mg/kg/injection, schedule: Q01DX009 (ip), vehicle: saline
[9] = dose: 200.0 mg/kg/injection, schedule: Q01DX009 (ip), vehicle: saline
[10] = dose: 100.0 mg/kg/injection, schedule: Q04DX002 (ip), vehicle: Klucel (hydroxypropylcellulose) (HPC)
[11] = dose: 200.0 mg/kg/injection, schedule: Q04DX002 (ip), vehicle: Klucel (hydroxypropylcellulose) (HPC)
[12] = dose: 50.0 mg/kg/injection, schedule: Q01DX001 (ip), vehicle: carboxymethylcellulose (CMC)
[13] = dose: 100.0 mg/kg/injection, schedule: Q01DX001 (ip), vehicle: carboxymethylcellulose (CMC)
[14] = dose: 200.0 mg/kg/injection, schedule: Q01DX001 (ip), vehicle: carboxymethylcellulose (CMC)
[15] = dose: 400.0 mg/kg/injection, schedule: Q01DX001 (ip), vehicle: carboxymethylcellulose (CMC)

SMILES: CCCN=C(N)c1ccc(NC(=O)c2ccc(C(=O)Nc3ccc(C(N)=NCCC)cc3)cc2)cc1
- T/C (dose: 0.16 mg/kg/injection, schedule: Q01DX Z (ip), vehicle: carboxymethylcellulose (CMC)): 105 % of control
- T/C (dose: 0.31 mg/kg/injection, schedule: Q01DX Z (ip), vehicle: carboxymethylcellulose (CMC)): 113 % of control
- T/C (dose: 1.25 mg/kg/injection, schedule: Q01DX Z (ip), vehicle: carboxymethylcellulose (CMC)): 211 % of control and 257 % of control
- T/C (dose: 2.5 mg/kg/injection, schedule: Q01DX Z (ip), vehicle: carboxymethylcellulose (CMC)): 190 % of control
- T/C (dose: 3.0 mg/kg/injection, schedule: Q01DX001 (ip), vehicle: carboxymethylcellulose (CMC)): 114 % of control
- T/C (dose: 10.0 mg/kg/injection, schedule: Q01DX001 (ip), vehicle: carboxymethylcellulose (CMC)): 169 % of control
- T/C (dose: 10.0 mg/kg/injection, schedule: Q01DX001 (ip), vehicle: other): 157 % of control
- T/C (dose: 10.0 mg/kg/injection, schedule: Q01DX Z (ip), vehicle: carboxymethylcellulose (CMC)): 113 % of control
- T/C (dose: 15.0 mg/kg/injection, schedule: Q01DX001 (ip), vehicle: carboxymethylcellulose (CMC)): 176 % of control and 180 % of control
- T/C (dose: 15.0 mg/kg/injection, schedule: Q01DX001 (ip), vehicle: other): 168 % of control and 191 % of control
- T/C (dose: 22.5 mg/kg/injection, schedule: Q01DX001 (ip), vehicle: carboxymethylcellulose (CMC)): 268 % of control
- T/C (dose: 22.5 mg/kg/injection, schedule: Q01DX001 (ip), vehicle: other): 234 % of control
- T/C (dose: 33.0 mg/kg/injection, schedule: Q01DX001 (ip), vehicle: carboxymethylcellulose (CMC)): 257 % of control
- T/C (dose: 33.0 mg/kg/injection, schedule: Q01DX001 (ip), vehicle: other): 269 % of control
- T/C (dose: 50.0 mg/kg/injection, schedule: Q01DX Z (oral), vehicle: carboxymethylcellulose (CMC)): 104 % of control
- T/C (dose: 100.0 mg/kg/injection, schedule: Q01DX Z (oral), vehicle: carboxymethylcellulose (CMC)): 107 % of control
- T/C (dose: 200.0 mg/kg/injection, schedule: Q01DX Z (oral), vehicle: carboxymethylcellulose (CMC)): 103 % of control
- T/C (dose: 400.0 mg/kg/injection, schedule: Q01DX Z (oral), vehicle: carboxymethylcellulose (CMC)): 98 % of control

SMILES: Clc1nc(Cl)c(Cl)[nH]1
- T/C (dose: 6.25 mg/kg/injection, schedule: Q01DX009 (ip), vehicle: saline with Tween-80): 94 % of control
- T/C (dose: 12.5 mg/kg/injection, schedule: Q01DX009 (ip), vehicle: saline with Tween-80): 93 % of control

SMILES: CC(C)=CCCNC(=O)NS(=O)(=O)c1ccc(C)cc1
- T/C [1]: 99 % of control
- T/C [2]: 101 % of control
- T/C [3]: 97 % of control

SMILES: Cc1cccc(NC(=O)NC2CCC(CC3CCCCC3)CC2)c1 (stereo not given)
- T/C [4]: 106 % of control
- T/C [1]: 97 % of control
- T/C [5]: 97 % of control
- T/C [2]: 101 % of control
- T/C [6]: 95 % of control
- T/C [3]: 101 % of control

SMILES: CC(C)NC(N)=O
- T/C (dose: 87.5 mg/kg/injection, schedule: Q01DX009 (ip), vehicle: saline): 101 % of control
- T/C (dose: 175.0 mg/kg/injection, schedule: Q01DX009 (ip), vehicle: saline): 101 % of control
- T/C (dose: 350.0 mg/kg/injection, schedule: Q01DX009 (ip), vehicle: saline): 101 % of control

SMILES: CC(=O)OC1COC(NC(=O)N(CCCl)N=O)C(OC(C)=O)C1OC(C)=O (stereo not given)
- T/C (dose: 9.0 mg/kg/injection, schedule: Q01DX001 (ip), vehicle: saline with Tween-80): 211 % of control
- T/C (dose: 13.0 mg/kg/injection, schedule: Q01DX001 (ip), vehicle: saline with Tween-80): 284 % of control
- T/C (dose: 20.0 mg/kg/injection, schedule: Q01DX001 (ip), vehicle: saline with Tween-80): 459 % of control
- T/C (dose: 30.0 mg/kg/injection, schedule: Q01DX001 (ip), vehicle: saline with Tween-80): 294 % of control

SMILES: CCNCCn1cccc1
- T/C [7]: 97 % of control
- T/C [8]: 100 % of control
- T/C (dose: 100.0 mg/kg/injection, schedule: Q04DX003 (ip), vehicle: saline): 97 % of control
- T/C [9]: 97 % of control
- T/C (dose: 200.0 mg/kg/injection, schedule: Q04DX003 (ip), vehicle: saline): 100 % of control

SMILES: CCN(CC)CCSC(=O)c1ccccc1
- T/C [7]: 94 % of control
- T/C [8]: 100 % of control
- T/C [9]: 100 % of control

SMILES: CN(Cc1ccccc1)C(=O)c1cccc([N+](=O)[O-])c1
- T/C [4]: 98 % of control
- T/C [5]: 100 % of control
- T/C [6]: 95 % of control

SMILES: C/C=C/C=N/n1c(CCC)nc2ccccc2c1=O
- T/C [10]: 90 % of control
- T/C [11]: 104 % of control

SMILES: NC(=O)COc1ccc(Cl)cc1Cl
- T/C [4]: 111 % of control
- T/C [10]: 112 % of control
- T/C [5]: 101 % of control
- T/C [11]: 100 % of control

SMILES: Cc1ccc(SP(=O)(Sc2ccc(C)cc2)Sc2ccc(C)cc2)cc1
- T/C (dose: 100.0 mg/kg/injection, schedule: Q04DX002 (ip), vehicle: saline with Tween-80): 97 % of control
- T/C (dose: 200.0 mg/kg/injection, schedule: Q04DX002 (ip), vehicle: saline with Tween-80): 97 % of control
- T/C (dose: 400.0 mg/kg/injection, schedule: Q04DX002 (ip), vehicle: saline with Tween-80): 97 % of control

SMILES: CC(=O)N1CCCCC1
- T/C [12]: 97 % of control
- T/C [13]: 94 % of control
- T/C [8]: 100 % of control
- T/C [14]: 100 % of control
- T/C [9]: 98 % of control

SMILES: O=C(O)c1ccc(N2C(=O)C=CC2=O)cc1 (tested in a mixture with another compound)
- T/C (dose: 12.5 mg/kg/injection, schedule: Q01DX009 (ip), vehicle: acetone): 90 % of control

SMILES: COC(=O)/C(C#N)=C/c1c[nH]c2ccccc12
- T/C (dose: 100.0 mg/kg/injection, schedule: Q01DX009 (ip), vehicle: saline with Tween-80): 101 % of control
- T/C (dose: 100.0 mg/kg/injection, schedule: Q04DX003 (ip), vehicle: saline with Tween-80): 101 % of control
- T/C (dose: 200.0 mg/kg/injection, schedule: Q01DX009 (ip), vehicle: saline with Tween-80): 95 % of control
- T/C (dose: 200.0 mg/kg/injection, schedule: Q04DX003 (ip), vehicle: saline with Tween-80): 93 % of control
- T/C (dose: 400.0 mg/kg/injection, schedule: Q01DX009 (ip), vehicle: saline with Tween-80): 100 % of control
- T/C (dose: 400.0 mg/kg/injection, schedule: Q04DX003 (ip), vehicle: saline with Tween-80): 98 % of control

SMILES: CC(=O)[O][Hg][c]1cc(C)c(O)c([N+](=O)[O-])c1
- T/C (dose: 1.56 mg/kg/injection, schedule: Q04DX003 (ip), vehicle: Klucel (hydroxypropylcellulose) (HPC)): 105 % of control
- T/C (dose: 3.12 mg/kg/injection, schedule: Q01DX009 (ip), vehicle: Klucel (hydroxypropylcellulose) (HPC)): 95 % of control
- T/C (dose: 3.12 mg/kg/injection, schedule: Q04DX003 (ip), vehicle: Klucel (hydroxypropylcellulose) (HPC)): 115 % of control
- T/C (dose: 6.25 mg/kg/injection, schedule: Q01DX009 (ip), vehicle: Klucel (hydroxypropylcellulose) (HPC)): 96 % of control
- T/C (dose: 6.25 mg/kg/injection, schedule: Q04DX003 (ip), vehicle: Klucel (hydroxypropylcellulose) (HPC)): 117 % of control
- T/C (dose: 12.5 mg/kg/injection, schedule: Q04DX003 (ip), vehicle: Klucel (hydroxypropylcellulose) (HPC)): 109 % of control

SMILES: CCOC(=O)c1[nH]cnc1/N=N/N(C1CCCCC1)C1CCCCC1
- T/C (dose: 50.0 mg/kg/injection, schedule: Q01DX001 (ip), vehicle: other): 94 % of control
- T/C (dose: 100.0 mg/kg/injection, schedule: Q01DX001 (ip), vehicle: other): 97 % of control
- T/C (dose: 200.0 mg/kg/injection, schedule: Q01DX001 (ip), vehicle: other): 102 % of control
- T/C (dose: 400.0 mg/kg/injection, schedule: Q01DX001 (ip), vehicle: other): 92 % of control

SMILES: CS(=O)(=O)c1ccc2c(c1)-c1ccc(N)cc1C2=O
- T/C [13]: 117 % of control
- T/C [14]: 102 % of control
- T/C [15]: 102 % of control

SMILES: CSc1ccc(NC(=O)C(F)(F)F)cc1
- T/C [12]: 97 % of control
- T/C [13]: 92 % of control
- T/C [14]: 97 % of control
- T/C [15]: 95 % of control

SMILES: CNc1nc(NC)nc(NC)n1
- T/C (dose: 12.5 mg/kg/injection, schedule: Q01DX009 (ip), vehicle: Klucel (hydroxypropylcellulose) (HPC)): 102 % of control
- T/C (dose: 25.0 mg/kg/injection, schedule: Q01DX009 (ip), vehicle: Klucel (hydroxypropylcellulose) (HPC)): 102 % of control
- T/C (dose: 50.0 mg/kg/injection, schedule: Q01DX009 (ip), vehicle: Klucel (hydroxypropylcellulose) (HPC)): 98 % of control
- T/C [4]: 98 % of control
- T/C [5]: 100 % of control
